One test concerns the target Human SGLT2 (hSGLT2) (Homo sapiens (Human), UniProt P31639). The experiment in a line: Inhibitory effects on human SGLT2 activities (14C-AMG uptake, sodium-dependent glucose transport assay). Format: cell-based. Particulars: hSGLT2-expressing CHO cells, 37° C. for 2 h, single determinations. The source says:
Test 1: Cloning and Cell Line Construction for Human SGLT2
Human SGLT2 (hSGLT2) gene was amplified by PCR from cDNA-Human Adult Normal Tissue Kidney (Invitrogen). The hSGLT2 sequence was cloned into pcDNA3.1(+) for mammalian expression and stably transfected into chinese hamster ovary (CHO) cells. SGLT2-expressing clones were selected based on resistance to G418 antibiotic (Geneticin) and activity in the ^14C-α-methyl-D-glucopyranoside (^14C-AMG) uptake assay.
Test 2: Inhibitory Effects on Human SGLT2 Activities
(§1) For sodium-dependent glucose transport assay, cells expressing hSGLT2 were seeded into a 96-well culture plate at a density of 5×10^4 cells/well in RPMI medium 1640 containing 10% fetal bovine serum. The cells were used 1 day after plating. They were incubated in pretreatment buffer (10 mM HEPES, 5 mM Tris, 140 mM choline chloride, 2 mM KCl, 1 mM CaCl2, and 1 mM MgCl2, pH 7.4) at 37° C. for 10 min. They were then incubated in uptake buffer (10 mM HEPES, 5 mM Tris, 140 mM NaCl, 2 mM KCl, 1 mM CaCl2, 1 mM MgCl2, and 1 mM ^14C-nonlabeled AMG pH 7.4) containing ^14C-labeled AMG (8 μM) and the inventive compound or dimethyl sulfoxide (DMSO) vehicle at 37° C. for 2 h. Cells were washed twice with washing buffer (pretreatment buffer containing 10 mM AMG at room temperature) and then the radioactivity was measured using a liquid scintillation counter. IC50 was determined by nonlinear regression analysis using GraphPad PRISM [Katsuno, K. et al. J. Pharmacol. Exp. Ther. 2007, 320, 323-330; Han, S. et al. Diabetes, 2008, 57, 1723-1729].

A further test concerns the target Human SGLT1 (hSGLT1) (Homo sapiens (Human), UniProt P13866). The experiment in a line: Inhibitory effects on human SGLT1 activities (14C-AMG uptake, sodium-dependent glucose transport assay). Format: cell-based. Particulars: 37° C. for 2 h, single determinations. As for the experimental part: Test 3: Inhibitory Effects on Human SGLT1 Activities
as §1, with “^14C-labeled” for “^14C-labeled AMG”, “inhibitor” for “the inventive compound”, “PRISM.” for “PRISM [Katsuno, K. et al. J. Pharmacol. Exp. Ther. 2007, 320, 323-330; Han, S. et al. Diabetes, 2008, 57, 1723-1729].”

The structures appear in SMILES notation.

One may read the IC50 as the point on the concentration scale where inhibition reaches its midpoint. Low readings indicate greater potency in that assay, high ones weaker potency in that assay.

Chain of Human SGLT1 (hSGLT1) (P13866 whole entry): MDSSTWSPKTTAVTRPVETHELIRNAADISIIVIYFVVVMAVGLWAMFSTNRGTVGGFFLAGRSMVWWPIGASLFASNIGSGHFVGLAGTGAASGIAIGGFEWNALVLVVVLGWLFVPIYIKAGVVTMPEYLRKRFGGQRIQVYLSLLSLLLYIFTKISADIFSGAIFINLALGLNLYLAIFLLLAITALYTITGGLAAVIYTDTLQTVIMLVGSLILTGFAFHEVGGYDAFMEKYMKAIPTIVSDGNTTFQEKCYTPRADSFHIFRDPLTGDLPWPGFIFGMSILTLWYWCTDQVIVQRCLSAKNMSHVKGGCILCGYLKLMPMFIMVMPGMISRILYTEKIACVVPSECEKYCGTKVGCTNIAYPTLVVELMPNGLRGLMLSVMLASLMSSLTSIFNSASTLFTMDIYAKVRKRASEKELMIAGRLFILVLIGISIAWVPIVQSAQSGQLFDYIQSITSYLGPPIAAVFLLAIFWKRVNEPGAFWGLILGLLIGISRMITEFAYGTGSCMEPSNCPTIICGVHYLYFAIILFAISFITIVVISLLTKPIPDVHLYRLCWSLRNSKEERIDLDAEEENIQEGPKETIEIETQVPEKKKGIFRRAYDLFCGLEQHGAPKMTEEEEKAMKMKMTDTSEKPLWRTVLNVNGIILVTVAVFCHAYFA
Chain of Human SGLT2 (hSGLT2) (P31639 whole entry): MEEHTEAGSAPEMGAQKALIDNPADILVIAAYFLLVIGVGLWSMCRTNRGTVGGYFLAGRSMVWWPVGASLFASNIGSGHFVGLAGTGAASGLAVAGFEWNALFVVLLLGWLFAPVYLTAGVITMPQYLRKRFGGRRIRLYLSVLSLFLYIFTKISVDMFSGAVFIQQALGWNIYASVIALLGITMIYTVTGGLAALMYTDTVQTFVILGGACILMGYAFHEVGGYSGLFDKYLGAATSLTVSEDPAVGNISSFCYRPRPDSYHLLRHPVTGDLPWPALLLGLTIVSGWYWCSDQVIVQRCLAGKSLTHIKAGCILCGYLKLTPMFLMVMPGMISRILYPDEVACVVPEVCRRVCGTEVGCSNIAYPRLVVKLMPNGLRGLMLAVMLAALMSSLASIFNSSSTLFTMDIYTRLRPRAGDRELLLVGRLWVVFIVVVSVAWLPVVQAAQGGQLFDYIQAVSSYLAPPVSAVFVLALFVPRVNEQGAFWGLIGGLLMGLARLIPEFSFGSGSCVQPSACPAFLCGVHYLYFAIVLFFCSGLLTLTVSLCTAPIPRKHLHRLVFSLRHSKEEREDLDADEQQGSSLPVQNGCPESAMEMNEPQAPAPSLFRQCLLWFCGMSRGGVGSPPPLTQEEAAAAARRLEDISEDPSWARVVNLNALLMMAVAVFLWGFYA

With `Cc1ccc(Cc2cc3c(c([C@@H]4O[C@H](CO)[C@@H](O)[C@H](O)[C@H]4O)c2)CCC3)cc1` [Compound E041, (2R,3S,4R,5R,6S)-2-(Hydroxymethyl)-6-(6-(4-methylbenzyl)-2,3-dihydro-1H-inden-4-yl)tetrahydro-2H-pyran-3,4,5-triol], the IC50 at Human SGLT2 (hSGLT2) worked out at 8 nM; on Human SGLT1 (hSGLT1), 91 nM.

As for `Cc1ccc(Cc2cc([C@@H]3O[C@H](CO)[C@@H](O)[C@H](O)[C@H]3O)c3c(c2Cl)OCCO3)cc1` [Compound E042, (2S,3R,4R,5S,6R)-2-(8-chloro-7-(4-methylbenzyl)-2,3-dihydrobenzo[b][1,4]dioxin-5-yl)-6-(hydroxymethyl)tetrahydro-2H-pyran-3,4,5-triol], the IC50 on Human SGLT2 (hSGLT2) is 1 nM; at Human SGLT1 (hSGLT1), 9.2 nM.

`CCc1ccc(Cc2cc([C@@H]3O[C@H](CO)[C@@H](O)[C@H](O)[C@H]3O)c3c(c2Cl)CCCC3)cc1` [Compound E043, (2S,3R,4R,5S,6R)-2-(4-Chloro-3-(4-ethylbenzyl)-5,6,7,8-tetrahydronaphthalen-1-yl)-6-(hydroxymethyl)tetrahydro-2H-pyran-3,4,5-triol]: the IC50 against Human SGLT2 (hSGLT2) came to 0.49 nM; on Human SGLT1 (hSGLT1), 32.6 nM.

On to `CCc1ccc(Cc2cc([C@@H]3O[C@H](CO)[C@@H](O)[C@H](O)[C@H]3O)c3c(c2C)CCCC3)cc1` [Compound E044, (2S,3R,4R,5S,6R)-2-(3-(4-Ethylbenzyl)-4-methyl-5,6,7,8-tetrahydronaphthalen-1-yl)-6-(hydroxymethyl)tetrahydro-2H-pyran-3,4,5-triol], for which the IC50 at Human SGLT2 (hSGLT2) is 0.59 nM; on Human SGLT1 (hSGLT1), 10.4 nM.

Consider `Cc1ccc(Cc2cc([C@@H]3O[C@H](CO)[C@@H](O)[C@H](O)[C@H]3O)c3c(c2Cl)OCCC3)cc1` [Compound E045, (2S,3R,4R,5S,6R)-2-(8-Chloro-7-(4-methylbenzyl)chroman-5-yl)-6-(hydroxymethyl)tetrahydro-2H-pyran-3,4,5-triol], for which the figures for the IC50 against Human SGLT2 (hSGLT2) and against Human SGLT1 (hSGLT1) were 1.9 nM and 36.7 nM, respectively.

As to `Cc1ccc(Cc2cc([C@@H]3O[C@H](CO)[C@@H](O)[C@H](O)[C@H]3O)c3c(c2Cl)CCO3)cc1` [Compound E046, (2S,3R,4R,5S,6R)-2-(4-Chloro-5-(4-methylbenzyl)-2,3-dihydrobenzofuran-7-yl)-6-(hydroxymethyl)tetrahydro-2H-pyran-3,4,5-triol], the IC50 against Human SGLT2 (hSGLT2) is 1.4 nM; against Human SGLT1 (hSGLT1), 29.9 nM.

With `CCOc1ccc(Cc2cc([C@@H]3O[C@H](CO)[C@@H](O)[C@H](O)[C@H]3O)c3c(c2C)CCCC3)cc1` [Compound E047, (2S,3R,4R,5S,6R)-2-(3-(4-Ethoxybenzyl)-4-methyl-5,6,7,8-tetrahydronaphthalen-1-yl)-6-(hydroxymethyl)tetrahydro-2H-pyran-3,4,5-triol], the IC50 against Human SGLT2 (hSGLT2) turned out to be 1.3 nM; against Human SGLT1 (hSGLT1) it was 27.1 nM.

`COc1ccc(Cc2cc([C@@H]3O[C@H](SC)[C@@H](O)[C@H](O)[C@H]3O)c3c(c2Cl)CCC3)cc1` [Compound E048, (2S,3R,4R,5S,6R)-2-(7-Chloro-6-(4-methoxybenzyl)-2,3-dihydro-1H-inden-4-yl)-6-(methylthio)tetrahydro-2H-pyran-3,4,5-triol]: the IC50 was 0.5 nM on Human SGLT2 (hSGLT2) and 33.7 nM on Human SGLT1 (hSGLT1).

On to `CSc1ccc(Cc2cc([C@@H]3O[C@H](CO)[C@@H](O)[C@H](O)[C@H]3O)c3c(c2Cl)OCO3)cc1` [Compound E049, (2S,3R,4R,5S,6R)-2-(7-Chloro-6-(4-(methylthio)benzyl)benzo[d][1,3]dioxol-4-yl)-6-(hydroxymethyl)tetrahydro-2H-pyran-3,4,5-triol], for which the values for the IC50 at Human SGLT2 (hSGLT2) and against Human SGLT1 (hSGLT1) were 0.8 nM and 50.3 nM, respectively.

On to `CSc1ccc(Cc2cc([C@@H]3O[C@H](CO)[C@@H](O)[C@H](O)[C@H]3O)c3c(c2Cl)OCCO3)cc1` [Compound E050, (2S,3R,4R,5S,6R)-2-(8-Chloro-7-(4-(methylthio)benzyl)-2,3-dihydrobenzo[b][1,4]dioxin-5-yl)-6-(hydroxymethyl)tetrahydro-2H-pyran-3,4,5-triol], for which the IC50 on Human SGLT2 (hSGLT2) amounted to 0.85 nM; against Human SGLT1 (hSGLT1) it was 23.2 nM.

On to `CCOc1ccc(Cc2cc([C@@H]3O[C@H](SC)[C@@H](O)[C@H](O)[C@H]3O)c3c(c2Cl)OCO3)cc1` [Compound E051, (2S,3R,4R,5S,6R)-2-(7-Chloro-6-(4-ethoxybenzyl)benzo[d][1,3]dioxol-4-yl)-6-(methylthio)tetrahydro-2H-pyran-3,4,5-triol], for which the IC50 on Human SGLT2 (hSGLT2) was 0.49 nM; on Human SGLT1 (hSGLT1), 62.4 nM.

As for `Cc1ccc(Cc2cc([C@@H]3O[C@H](CO)[C@@H](O)[C@H](O)[C@H]3O)c3c(c2Cl)CCCO3)cc1` [Compound E052, (2S,3R,4R,5S,6R)-2-(5-Chloro-6-(4-methylbenzyl)chroman-8-yl)-6-(hydroxymethyl)tetrahydro-2H-pyran-3,4,5-triol], the figures for the IC50 on Human SGLT2 (hSGLT2) and against Human SGLT1 (hSGLT1) were 1.1 nM and 9.2 nM, respectively.

As for `OC[C@H]1O[C@@H](c2cc(Cc3cc4ccccc4s3)c(Cl)c3c2OCO3)[C@H](O)[C@@H](O)[C@@H]1O` [Compound E053, (2S,3R,4R,5S,6R)-2-(6-(Benzo[b]thiophen-2-ylmethyl)-7-chlorobenzo[d][1,3]dioxol-4-yl)-6-(hydroxymethyl)tetrahydro-2H-pyran-3,4,5-triol], the IC50 worked out at 1.5 nM against Human SGLT2 (hSGLT2) and 41 nM against Human SGLT1 (hSGLT1).

On to `OC[C@H]1O[C@@H](c2cc(Cc3ccc(-c4ccc(F)cc4)s3)c(Cl)c3c2OCCO3)[C@H](O)[C@@H](O)[C@@H]1O` [Compound E054, (2S,3R,4R,5S,6R)-2-(8-Chloro-7-((5-(4-fluorophenyl)thiophen-2-yl)methyl)-2,3-dihydrobenzo[b][1,4]dioxin-5-yl)-6-(hydroxymethyl)tetrahydro-2H-pyran-3,4,5-triol], for which the IC50 was 1.1 nM against Human SGLT2 (hSGLT2) and 125 nM against Human SGLT1 (hSGLT1).

For the compound `OC[C@H]1O[C@@H](c2cc(Cc3cc4ccccc4s3)c(Cl)c3c2CCO3)[C@H](O)[C@@H](O)[C@@H]1O` [Compound E055, (2S,3R,4R,5S,6R)-2-(6-(Benzo[b]thiophen-2-ylmethyl)-7-chloro-2,3-dihydrobenzofuran-4-yl)-6-(hydroxymethyl)tetrahydro-2H-pyran-3,4,5-triol], the IC50 against Human SGLT2 (hSGLT2) came to 1.4 nM; at Human SGLT1 (hSGLT1), 148 nM.

Consider `OC[C@H]1O[C@@H](c2cc(Cc3cc4ccccc4s3)c(Cl)c3c2OCCO3)[C@H](O)[C@@H](O)[C@@H]1O` [Compound E056, (2S,3R,4R,5S,6R)-2-(7-(Benzo[b]thiophen-2-ylmethyl)-8-chloro-2,3-dihydrobenzo[b][1,4]dioxin-5-yl)-6-(hydroxymethyl)tetrahydro-2H-pyran-3,4,5-triol], for which the figures for the IC50 against Human SGLT2 (hSGLT2) and against Human SGLT1 (hSGLT1) were 2.2 nM and 14 nM, respectively.

On to `CCc1ccc(Cc2cc([C@@H]3O[C@H](CO)[C@@H](O)[C@H](O)[C@H]3O)c3c(c2Br)CCCC3)cc1` [Compound E057, (2S,3R,4R,5S,6R)-2-(4-Bromo-3-(4-ethylbenzyl)-5,6,7,8-tetrahydronaphthalen-1-yl)-6-(hydroxymethyl)tetrahydro-2H-pyran-3,4,5-triol], for which the IC50 against Human SGLT2 (hSGLT2) stood at 0.86 nM; on Human SGLT1 (hSGLT1) it was 11 nM.

For `CCOc1ccc(Cc2cc([C@@H]3O[C@H](CO)[C@@H](O)[C@H](O)[C@H]3O)c3c(c2Br)CCCC3)cc1` [Compound E058, (2S,3R,4R,5S,6R)-2-(4-Bromo-3-(4-ethoxybenzyl)-5,6,7,8-tetrahydronaphthalen-1-yl)-6-(hydroxymethyl)tetrahydro-2H-pyran-3,4,5-triol], the IC50 against Human SGLT2 (hSGLT2) came to 0.87 nM; against Human SGLT1 (hSGLT1), 17.1 nM.

`CCOc1ccc(Cc2cc([C@@H]3O[C@H](CO)[C@@H](O)[C@H](O)[C@H]3O)c3c(c2Cl)SCC3)cc1` [Compound E059, (2S,3R,4R,5S,6R)-2-(7-Chloro-6-(4-ethoxybenzyl)-2,3-dihydrobenzo[b]thiophen-4-yl)-6-(hydroxymethyl)tetrahydro-2H-pyran-3,4,5-triol]: the results for the IC50 at Human SGLT2 (hSGLT2) and on Human SGLT1 (hSGLT1) were 1.1 nM and 95.1 nM, respectively.
